Test results taken from PubChem BioAssay AID1963848 (Molecular Pharmacology Branch, DTP, NCI, 2024).

Tested on: 379773-124-R-J2-PDC spheroid viability
Assay: Anticancer human tumor 379773-124-R-J2-PDC patient-derived endometrial carcinoma cell line growth inhibition [POLQ]
Conditions: spheroids with HUVEC and MSC; for IC50: curve of first compound; for viability, T/C: stronger effect = lower value; active = viability on the fitted dose curve at most 10% of control; inactive = the rest
How it was run: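 Patient-derived tumour cells were co-cultured with HUVEC and mesenchymal stem cells as multicellular spheroids at 37 °C. They were treated with POLQ inhibitors (novobiocin, ART-558, RP6685) alone or combined with other agents. Top concentrations were at or near clinical Cmax (otherwise 10 microM; SN-38 at 1 microM), decreasing in half-log steps.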
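Also: spheroids exposed to drugs for seven days before readout.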
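For viability, T/C in this document: percent viability relative to DMSO vehicle control taken as 100%.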

COc1cccc2c1C(=O)c1c(O)c3c(c(O)c1C2=O)CC(O)(C(=O)CO)CC3OC1CC(N)C(O)C(C)O1 (configuration not stated) + Cc1cccc(N(C)C(=O)C2C(O)CCN2c2nc(C)cc(C(F)(F)F)c2C#N)c1
63.5 nM: IC50 (second compound 0.1 µM)
48.3 nM: IC50 (second compound 3.16 µM)
52 nM: IC50 (second compound 0.316 µM)
inactive: viability, T/C (second compound 0.0316 µM, first compound 0.0316 µM) 80.6% | viability, T/C (second compound 0.0316 µM, first compound 0.1 µM) 22% | viability, T/C (second compound 0.1 µM, first compound 0.0316 µM) 82.8% | viability, T/C (second compound 0.1 µM, first compound 0.1 µM) 28.3% | viability, T/C (second compound 0.316 µM, first compound 0.0316 µM) 70.5% | viability, T/C (second compound 0.316 µM, first compound 0.1 µM) 23.1% | viability, T/C (second compound 1 µM, first compound 0.0316 µM) 74.8% | viability, T/C (second compound 1 µM, first compound 0.1 µM) 20.8% | viability, T/C (second compound 3.16 µM, first compound 0.0316 µM) 69.5% | viability, T/C (second compound 3.16 µM, first compound 0.1 µM) 15.7% | viability, T/C (second compound 10 µM, first compound 0.0316 µM) 48.5% | viability, T/C (second compound 10 µM, first compound 0.1 µM) 12%
active: viability, T/C (second compound 0.0316 µM, first compound 0.316 µM) 9.56% | viability, T/C (second compound 0.0316 µM, first compound 1 µM) 6.15% | viability, T/C (second compound 0.0316 µM, first compound 3.16 µM) 0.89% | viability, T/C (second compound 0.0316 µM, first compound 10 µM) 0.14% | viability, T/C (second compound 0.1 µM, first compound 0.316 µM) 9.45% | viability, T/C (second compound 0.1 µM, first compound 1 µM) 5.6% | viability, T/C (second compound 0.1 µM, first compound 3.16 µM) 1.37% | viability, T/C (second compound 0.1 µM, first compound 10 µM) 0.84% | viability, T/C (second compound 0.316 µM, first compound 0.316 µM) 7.91% | viability, T/C (second compound 0.316 µM, first compound 1 µM) 6.47% | viability, T/C (second compound 0.316 µM, first compound 3.16 µM) 2% | viability, T/C (second compound 0.316 µM, first compound 10 µM) 1.9% | viability, T/C (second compound 1 µM, first compound 0.316 µM) 9.58% | viability, T/C (second compound 1 µM, first compound 1 µM) 5.67% | viability, T/C (second compound 1 µM, first compound 3.16 µM) 0.65% | viability, T/C (second compound 1 µM, first compound 10 µM) 1.38% | viability, T/C (second compound 3.16 µM, first compound 0.316 µM) 7.22% | viability, T/C (second compound 3.16 µM, first compound 1 µM) 7.14% | viability, T/C (second compound 3.16 µM, first compound 3.16 µM) 1.2% | viability, T/C (second compound 3.16 µM, first compound 10 µM) 0.28% | viability, T/C (second compound 10 µM, first compound 0.316 µM) 9.32% | viability, T/C (second compound 10 µM, first compound 1 µM) 4.59% | viability, T/C (second compound 10 µM, first compound 3.16 µM) 0.51% | viability, T/C (second compound 10 µM, first compound 10 µM) 0.38%
54.1 nM: IC50 (second compound 1 µM)
< 31.6 nM: IC50 (second compound 10 µM)
58.5 nM: IC50 (second compound 0.0316 µM)
